According to EPA's ToxValDB 9.5 (doi:10.2903/j.efsa.2009.179r):

How the values were obtained:
Apis mellifera = conditions: acute; duration: 48 hours; dermal; mortality
Canidae = conditions: Dog Other, clinical signs
Daphnia magna = conditions: chronic/long-term; duration: 21 days; reproduction
Oryctolagus sp. = conditions: acute; oral; mortality
Rattus norvegicus = conditions: reproduction developmental
Aphidius rhopalosiphi = experiment: LR50; higher = less toxic; conditions: not reported; mortality

C[N+](C)(C)CCCl.[Cl-] [Chlormequat chloride]
LD50 (Apis mellifera): > 65.2 µg/piece | NOAEL (Canidae; chronic, duration: 1 years, oral): 4 mg/kg-day | NOAEL (Canidae; short-term, duration: 4 weeks): 9 mg/kg-day | LC50 (Coturnix japonica; acute, oral, diet, mortality): > 310 mg/kg-day | LD50 (Coturnix japonica; acute, oral, mortality): 441 mg/kg-day | NOEC (Coturnix japonica; reproduction developmental): 54.8 mg/kg-day | NOEC (Daphnia magna): 2.4 mg/L | LC50 (Oncorhynchus mykiss; acute, duration: 96 hours, mortality): > 100 µg/mL | NOEC (Oncorhynchus mykiss; chronic/long-term, duration: 21 days, growth): 43.1 mg/L | LD50 (Oryctolagus sp.): 115 mg/kg-day | NOAEL (Rattus norvegicus; body weight): 41 mg/kg-day | NOAEL (Rattus norvegicus; reproduction): 74 mg/kg-day | LC50 (Tagia sp.; acute, duration: 14 days, mortality): 320 mg/kg | NOEC (Tagia sp.; chronic/long-term, duration: 56 days): 680 mg/kg | LR50 (Aphidius rhopalosiphi): > 2200 g/ha
